{
  "source": "patent US5653957A",
  "about": "“Halogenated sulfidohydroboranes for nuclear medicine and boron neutron capture therapy” (Associated Universities, Inc., priority 1996, dated 1997)",
  "key": {"[1]": {"tested_on": "mice", "assay": "Subacute toxicity in mice judged by hematological and chemical tests of the blood 5 days after i.p. injection", "format": "in vivo, female mice (BNL Hale-Stoner strain)", "procedure": "C) 0.9% NaCl in water (saline) (7 mice).\nInjection volumes were all 0.015 mL/gbw.\nInadvertently,the BSSB group (Group A) received 17 μg ^10 B/gbw, only about one-third of the intended boron dose, 50 μg/gbw. Nevertheless, it is useful to compare the subacute toxicity of a relatively high dose of a substance, IBSSB, which had never before been tested in an animal, with that of its parent compound, BSSB, which is known to be non-lethal at about 35 μg B/gbw, i.e., twice the lower of the two boron doses used See Slatkin et al., \"Boron Uptake in Melanoma, Cerebrum and Blood from Na2 B12 H11 SH and Na4 B24 H22 S2 Administered to Mice\", Biochem. Pharm., 35, 1771 (1986).\nSee Miura et al., \"Biodistribution and Toxicity of 2,4-Divinyl-nido-carboranyldeuterophorphyrin IX in Mice\". Biochem. Pharm., 43, 467 (1992). It therefore appears that the periodinated borane is not more toxic than the non-iodinated borane."}, "[2]": {"tested_on": "mice", "settings": "at about 35 μg B/gbw; cited from earlier work"}, "[3]": {"tested_on": "brain tumors", "settings": "mouse, in vivo; cited from earlier work"}, "[4]": {"settings": "mouse, in vivo", "quoted_text": "Three groups of female mice (BNL Hale-Stoner strain) were given a single intraperitoneal (i.p.) injection of:\nInjection volumes were all 0.015 mL/gbw. Five days after the injection, mice were euthanized by deep halothane inhalation anesthesia. Thoracotomy was performed, and about 0.7-0.9 mL blood was removed through the right ventricle. Hematological and chemical analyses were performed on blood specimens from each mouse.\n(mg/dL), blood urea nitrogen [BUN] (mg/dL), blood creatinine [BCR] (mg/dL) aspartate transaminase [AST] (U/L), alanine transaminase [ALT] (U/L), alkaline phosphatase [ALP] (U/L), creatine phosphokinase [CPK] (U/L), total protein [TPR] (g/dL), albumin [ALB] (g/dL), calcium [CA] (mg/dL), chloride [CHL] (meg/L), inorganic phosphorus [P] (mg/dL), potassium [K] (meg/L), and sodium [SOD] (meg/L) ."}},
  "data": [
    {"substance": "BSSB", "values": [
      {"measurement": "fourteen chemical and thirteen hematological tests, BSSB (Group A) vs IBSSB (Group B)", "setting": "[1]; mouse, in vivo", "value": "no significant differences between the two groups"},
      {"measurement": "lethality", "setting": "[2]", "value": "non-lethal"},
      {"measurement": "accumulation in brain tumors vs the monomeric form", "setting": "[3]", "value": "more readily accumulated in brain tumors than the monomeric form"}
    ]},
    {"substance": "periodinated dimeric sulfidohydrododecaborane [IBSSB]", "values": [
      {"measurement": "fourteen chemical and thirteen hematological tests, BSSB (Group A) vs IBSSB (Group B)", "setting": "[1]; mouse, in vivo", "value": "no significant differences between the two groups"},
      {"measurement": "hepatotoxicity", "setting": "[1]; mouse, in vivo", "value": "may be slightly hepatotoxic to mice"},
      {"measurement": "other differences between mice in groups B and C", "setting": "[1]; mouse, in vivo", "value": "No other differences were noted"},
      {"measurement": "significant toxicity", "setting": "[1]; mouse, in vivo", "value": "no evidence of significant toxicity"},
      {"measurement": "toxicity judged by hematological and chemical tests of the blood, vs BSSB", "setting": "[1]; single i.p. 50 μg B/gbw, vs three-fold less BSSB, 5 days later", "value": "only minimally more toxic"},
      {"measurement": "alanine transaminase [ALT]", "setting": "[4]", "value": 22, "unit": "U/L"},
      {"measurement": "albumin [ALB]", "setting": "[4]", "value": 3.3, "unit": "g/dL"},
      {"measurement": "alkaline phosphatase [ALP]", "setting": "[4]", "value": 110, "unit": "U/L"},
      {"measurement": "aspartate transaminase [AST]", "setting": "[4]", "value": 44, "unit": "U/L"},
      {"measurement": "blood creatinine [BCR]", "setting": "[4]", "value": 0.5, "unit": "mg/dL"},
      {"measurement": "blood urea nitrogen [BUN]", "setting": "[4]", "value": 28, "unit": "mg/dL"},
      {"measurement": "calcium [CA]", "setting": "[4]", "value": 11.5, "unit": "mg/dL"},
      {"measurement": "chloride [CHL]", "setting": "[4]", "value": 116, "unit": "meg/L"},
      {"measurement": "creatine phosphokinase [CPK]", "setting": "[4]", "value": 35, "unit": "U/L"},
      {"measurement": "glucose [GLU]", "setting": "[4]", "value": 278, "unit": "mg/dL"},
      {"measurement": "inorganic phosphorus [P]", "setting": "[4]", "value": 9.9, "unit": "mg/dL"},
      {"measurement": "potassium [K]", "setting": "[4]", "value": 7.1, "unit": "meg/L"},
      {"measurement": "sodium [SOD]", "setting": "[4]", "value": 154, "unit": "meg/L"},
      {"measurement": "total protein [TPR]", "setting": "[4]", "value": 5.9, "unit": "g/dL"}
    ]}
  ]
}
